Assay: heat capacity at constant pressure per volume
Details: 10000 kPa, Liquid, Tian-Calvet differential microcalorimeter

CCCCCCCCn1cc[n+](C)c1.O=S(=O)([N-]S(=O)(=O)C(F)(F)F)C(F)(F)F
Details | heat capacity [J/K/m3]
325 K | 1950000
337.36 K | 1964000
349.71 K | 1973000
362.07 K | 1984000
374.43 K | 1993000
386.8 K | 2004000
399.16 K | 2012000
411.52 K | 2018000
423.88 K | 2029000
436.25 K | 2036000
448.61 K | 2049000
460.97 K | 2049000
473.33 K | 2053000
485.69 K | 2056000
498.06 K | 2068000
510.42 K | 2069000
522.79 K | 2084000
535.15 K | 2082000
547.51 K | 2099000
554.94 K | 2098000

CCCCCC[n+]1ccn(C)c1.O=S(=O)([N-]S(=O)(=O)C(F)(F)F)C(F)(F)F
Details | heat capacity [J/K/m3]
325.02 K | 1953000
337.38 K | 1966000
349.75 K | 1972000
362.12 K | 1982000
374.48 K | 1989000
386.84 K | 2004000
399.19 K | 2009000
411.56 K | 2021000
423.91 K | 2034000
436.27 K | 2038000
448.63 K | 2053000
460.99 K | 2050000
473.35 K | 2051000
485.72 K | 2055000
498.09 K | 2067000
510.46 K | 2066000
522.84 K | 2081000
535.2 K | 2079000
547.56 K | 2096000
554.94 K | 2121000

Source: the NIST ThermoML archive (doi:10.1021/je900676b)
